Laboratory results taken from ChEMBL document CHEMBL1909046, “DrugMatrix in vitro pharmacology data”.

Experiments:
[1] = DRUGMATRIX: Sodium/nucleoside co-transporter radioligand binding (ligand: nitrobenzylthioinosine); format: cell membranes, Cavia porcellus, Dunkin-Hartley, Cerebral cortex, Membrane; conditions: Not Active = under 50% inhibition at 10 µM
[2] = DRUGMATRIX: Tumor Necrosis Factor (TNF), Non-Selective radioligand binding (ligand: [125I] TNF-alpha); format: cell membranes, Membrane; conditions: u-937; Not Active = under 50% inhibition at 10 µM
Vasopressin V1a receptor = Vasopressin V1a receptor (Homo sapiens, UniProt P37288); format: cell membranes, Membrane; conditions: hek293; also: in other assays of this panel Not Active means under 50% inhibition at 10 µM
[3] = target: T1, C-X-C chemokine receptor type 1 (Homo sapiens, UniProt P25024); also: in other assays of this panel Not Active means under 50% inhibition at 10 µM
T1 sequence (P25024 whole entry): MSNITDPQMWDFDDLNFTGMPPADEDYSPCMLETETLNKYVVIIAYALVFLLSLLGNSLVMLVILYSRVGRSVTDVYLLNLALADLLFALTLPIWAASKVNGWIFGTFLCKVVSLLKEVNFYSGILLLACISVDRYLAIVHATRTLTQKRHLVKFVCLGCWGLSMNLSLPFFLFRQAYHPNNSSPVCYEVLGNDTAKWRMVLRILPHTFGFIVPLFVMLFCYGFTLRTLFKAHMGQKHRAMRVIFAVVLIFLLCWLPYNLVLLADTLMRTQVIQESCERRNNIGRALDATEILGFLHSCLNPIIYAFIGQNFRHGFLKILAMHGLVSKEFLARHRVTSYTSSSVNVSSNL

Endothelin-1 receptor = target: T2, Endothelin-1 receptor (Homo sapiens, UniProt P25101); format: cell membranes, Membrane; conditions: cho-k1; also: in other assays of this panel Not Active means under 50% inhibition at 10 µM
T2 sequence (P25101 whole entry): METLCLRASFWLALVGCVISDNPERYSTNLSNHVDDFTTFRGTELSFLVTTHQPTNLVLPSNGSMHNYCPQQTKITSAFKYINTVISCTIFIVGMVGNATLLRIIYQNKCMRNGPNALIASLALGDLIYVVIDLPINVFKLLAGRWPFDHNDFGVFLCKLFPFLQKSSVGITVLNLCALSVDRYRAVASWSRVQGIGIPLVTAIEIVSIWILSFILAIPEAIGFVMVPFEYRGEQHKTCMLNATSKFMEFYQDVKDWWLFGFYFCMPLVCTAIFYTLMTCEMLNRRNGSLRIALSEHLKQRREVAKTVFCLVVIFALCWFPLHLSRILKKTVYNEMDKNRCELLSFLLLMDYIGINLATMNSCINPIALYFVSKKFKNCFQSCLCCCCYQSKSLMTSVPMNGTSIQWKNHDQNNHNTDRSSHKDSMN

[4] = DRUGMATRIX: Glutamate, Kainate radioligand binding (ligand: [3H] Kainic acid); format: cell membranes, Rattus norvegicus, Wistar, Brain, Membrane; conditions: Not Active = under 50% inhibition at 10 µM
[5] = DRUGMATRIX: Glutamate, NMDA, Phencyclidine radioligand binding (ligand: [3H] TCP); format: cell membranes, Rattus norvegicus, Wistar, Cerebral cortex, Membrane; conditions: Not Active = under 50% inhibition at 10 µM
[6] = DRUGMATRIX: Platelet-Derived Growth Factor (PDGF) radioligand binding (ligand: [125I] PDGF); format: cell-based; conditions: nih3t3; Not Active = under 50% inhibition at 10 µM
[7] = target: T3, Receptor-type tyrosine-protein phosphatase C (Homo sapiens, UniProt P08575); set-up: species or system Escherichia coli;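 also: inhibition of CD45 enzyme activity measured using DiFMUP as substrate; in other assays of this panel Not Active means under 50% inhibition at 10 µM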
T3 sequence (P08575 whole entry): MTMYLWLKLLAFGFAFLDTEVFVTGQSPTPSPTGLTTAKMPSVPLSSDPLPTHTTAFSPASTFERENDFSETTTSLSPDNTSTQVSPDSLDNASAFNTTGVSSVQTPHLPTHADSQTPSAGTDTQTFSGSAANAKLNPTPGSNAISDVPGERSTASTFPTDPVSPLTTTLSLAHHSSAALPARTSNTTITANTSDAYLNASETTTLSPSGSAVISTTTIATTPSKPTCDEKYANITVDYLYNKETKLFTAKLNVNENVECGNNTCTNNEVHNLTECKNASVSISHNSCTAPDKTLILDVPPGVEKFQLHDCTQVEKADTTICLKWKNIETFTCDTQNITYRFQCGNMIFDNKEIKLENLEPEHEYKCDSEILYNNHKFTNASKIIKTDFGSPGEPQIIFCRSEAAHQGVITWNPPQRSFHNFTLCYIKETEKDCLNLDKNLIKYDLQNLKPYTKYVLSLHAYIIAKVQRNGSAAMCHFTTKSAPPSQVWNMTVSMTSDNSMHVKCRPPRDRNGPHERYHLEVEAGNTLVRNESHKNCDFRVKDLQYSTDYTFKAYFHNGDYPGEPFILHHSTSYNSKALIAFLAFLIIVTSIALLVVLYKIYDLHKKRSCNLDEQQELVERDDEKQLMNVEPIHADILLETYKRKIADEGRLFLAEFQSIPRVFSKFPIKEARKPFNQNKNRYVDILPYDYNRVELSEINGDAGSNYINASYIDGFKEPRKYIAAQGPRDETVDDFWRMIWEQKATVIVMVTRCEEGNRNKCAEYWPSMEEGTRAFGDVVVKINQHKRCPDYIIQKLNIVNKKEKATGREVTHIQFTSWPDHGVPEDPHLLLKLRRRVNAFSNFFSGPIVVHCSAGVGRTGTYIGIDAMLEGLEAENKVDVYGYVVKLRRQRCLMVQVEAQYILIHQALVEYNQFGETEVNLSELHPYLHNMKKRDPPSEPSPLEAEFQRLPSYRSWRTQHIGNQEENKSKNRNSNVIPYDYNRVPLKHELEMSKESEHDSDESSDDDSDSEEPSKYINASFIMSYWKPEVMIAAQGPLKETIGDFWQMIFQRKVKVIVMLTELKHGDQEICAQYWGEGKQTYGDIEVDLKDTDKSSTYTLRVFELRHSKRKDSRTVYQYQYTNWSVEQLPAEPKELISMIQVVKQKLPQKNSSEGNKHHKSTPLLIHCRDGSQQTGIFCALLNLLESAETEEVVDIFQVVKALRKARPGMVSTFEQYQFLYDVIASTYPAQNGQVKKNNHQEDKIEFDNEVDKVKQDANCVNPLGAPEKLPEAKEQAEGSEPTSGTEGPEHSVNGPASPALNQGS

Sequence of Vasopressin V1a receptor (P37288 whole entry): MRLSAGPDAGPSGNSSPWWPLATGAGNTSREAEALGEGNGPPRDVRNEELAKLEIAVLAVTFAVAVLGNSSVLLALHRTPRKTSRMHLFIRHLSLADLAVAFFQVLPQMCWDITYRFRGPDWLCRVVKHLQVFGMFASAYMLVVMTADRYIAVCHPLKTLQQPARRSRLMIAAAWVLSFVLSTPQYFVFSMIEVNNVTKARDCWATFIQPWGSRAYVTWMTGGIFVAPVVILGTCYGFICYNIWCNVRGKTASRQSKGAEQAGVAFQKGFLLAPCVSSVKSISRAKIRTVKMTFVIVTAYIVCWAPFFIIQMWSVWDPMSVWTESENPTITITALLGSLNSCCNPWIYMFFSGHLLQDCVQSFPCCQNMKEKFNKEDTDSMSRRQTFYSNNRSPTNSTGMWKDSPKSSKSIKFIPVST

COc1cc(/C=C/C(=O)O)ccc1O [FERULATE]
Not Active: IC50 [1] | Ki [1] | IC50 [2] | Ki [2] | IC50 (Vasopressin V1a receptor) | IC50 [3] | IC50 (Endothelin-1 receptor) | IC50 [4] | Ki [4] | IC50 [5] | Ki [5] | IC50 [6] | Ki [6] | IC50 [7]

CCN1C[C@]2(COC)[C@H](O)C[C@H](OC)[C@@]34[C@@H]5C[C@@]6(O)[C@H](OC(=O)c7ccccc7)[C@@H]5[C@@](OC(C)=O)([C@@H]([C@H](OC)[C@H]23)[C@@H]14)[C@@H](O)[C@@H]6OC [ACONITINE]
Not Active: IC50 [1] | Ki [1] | IC50 [2] | Ki [2] | IC50 (Vasopressin V1a receptor) | IC50 [3] | IC50 (Endothelin-1 receptor) | IC50 [4] | Ki [4] | IC50 [5] | Ki [5] | IC50 [6] | Ki [6] | IC50 [7]

CO[C@H]1O[C@@H]2O[C@@]3(C)CC[C@H]4[C@H](C)CC[C@@H]([C@H]1C)[C@@]24OO3
Not Active: IC50 [1] | Ki [1] | IC50 [2] | Ki [2] | IC50 (Vasopressin V1a receptor) | IC50 [3] | IC50 (Endothelin-1 receptor) | IC50 [4] | Ki [4] | IC50 [5] | Ki [5] | IC50 [6] | Ki [6] | IC50 [7]

C[C@@H]1[C@H](O)[C@@H](C)/C=C/C=C/C=C/C=C/C=C/C=C/C=C/[C@H](O[C@@H]2O[C@H](C)[C@@H](O)[C@H](N)[C@@H]2O)C[C@@H]2O[C@](O)(C[C@@H](O)C[C@@H](O)[C@H](O)CC[C@@H](O)C[C@@H](O)CC(=O)O[C@H]1C)C[C@H](O)[C@H]2C(=O)O [AMPHOTERICIN B]
Not Active: IC50 [1] | Ki [1] | IC50 [2] | Ki [2] | IC50 (Vasopressin V1a receptor) | IC50 [3] | IC50 (Endothelin-1 receptor) | IC50 [4] | Ki [4] | IC50 [5] | Ki [5] | IC50 [6] | Ki [6] | IC50 [7]

Oc1ncnc2[nH]ncc12 [ALLOPURINOL]
Not Active: IC50 [1] | Ki [1] | IC50 [2] | Ki [2] | IC50 (Vasopressin V1a receptor) | IC50 [3] | IC50 (Endothelin-1 receptor) | IC50 [4] | Ki [4] | IC50 [5] | Ki [5] | IC50 [6] | Ki [6] | IC50 [7]

COc1cc([C@@H]2c3cc4c(cc3[C@H](O)[C@H]3COC(=O)[C@H]23)OCO4)cc(OC)c1OC [PODOFILOX]
Not Active: IC50 [1] | Ki [1] | IC50 [2] | Ki [2] | IC50 (Vasopressin V1a receptor) | IC50 [3] | IC50 (Endothelin-1 receptor) | IC50 [4] | Ki [4] | IC50 [5] | Ki [5] | IC50 [6] | Ki [6] | IC50 [7]

NC(=O)CN1CCCC1=O
Not Active: IC50 [1] | Ki [1] | IC50 [2] | Ki [2] | IC50 (Vasopressin V1a receptor) | IC50 [3] | IC50 (Endothelin-1 receptor) | IC50 [4] | Ki [4] | IC50 [5] | Ki [5] | IC50 [6] | Ki [6] | IC50 [7]

POVIDONE
Not Active: IC50 [1] | Ki [1] | IC50 [2] | Ki [2] | IC50 (Vasopressin V1a receptor) | Ki (Vasopressin V1a receptor) | IC50 [3] | Ki [3] | IC50 (Endothelin-1 receptor) | Ki (Endothelin-1 receptor) | IC50 [4] | Ki [4] | IC50 [5] | Ki [5] | IC50 [6] | Ki [6] | IC50 [7] | Ki [7]

Cc1c(N)nc([C@H](CC(N)=O)NC[C@H](N)C(N)=O)nc1C(=O)N[C@H](C(=O)N[C@H](C)[C@@H](O)[C@H](C)C(=O)N[C@H](C(=O)NCCc1nc(-c2nc(C(=O)NCCC[S+](C)C)cs2)cs1)[C@@H](C)O)[C@@H](O[C@@H]1O[C@@H](CO)[C@@H](O)[C@H](O)[C@@H]1O[C@H]1O[C@H](CO)[C@@H](O)[C@H](OC(N)=O)[C@@H]1O)c1c[nH]cn1.[Br-] [BLEOMYCIN A2]
Not Active: IC50 [1] | Ki [1] | IC50 [2] | Ki [2] | IC50 (Vasopressin V1a receptor) | IC50 [3] | IC50 (Endothelin-1 receptor) | IC50 [4] | Ki [4] | IC50 [5] | Ki [5] | IC50 [6] | Ki [6] | IC50 [7]

CN(Cc1cc(Br)cc(Br)c1N)C1CCCCC1 [BROMHEXINE]
Not Active: IC50 [1] | Ki [1] | IC50 [2] | Ki [2] | IC50 (Vasopressin V1a receptor) | IC50 [3] | IC50 (Endothelin-1 receptor) | IC50 [4] | Ki [4] | IC50 [5] | Ki [5] | IC50 [6] | Ki [6] | IC50 [7]

Nc1ccc(Cc2ccc(N)cc2)cc1
Not Active: IC50 [1] | Ki [1] | IC50 [2] | Ki [2] | IC50 (Vasopressin V1a receptor) | IC50 [3] | IC50 (Endothelin-1 receptor) | IC50 [4] | Ki [4] | IC50 [5] | Ki [5] | IC50 [6] | Ki [6] | IC50 [7]

C[C@]12CC[C@@H](O)C[C@@H]1CC[C@@H]1[C@@H]2CC[C@]2(C)C(=O)CC[C@@H]12 [ANDROSTERONE]
Not Active: IC50 [1] | Ki [1] | IC50 [2] | Ki [2] | IC50 (Vasopressin V1a receptor) | IC50 [3] | IC50 (Endothelin-1 receptor) | IC50 [4] | Ki [4] | IC50 [5] | Ki [5] | IC50 [6] | Ki [6] | IC50 [7]

O=C(O)c1ccccc1 [BENZOIC ACID]
Not Active: IC50 [1] | Ki [1] | IC50 [2] | Ki [2] | IC50 (Vasopressin V1a receptor) | IC50 [3] | IC50 (Endothelin-1 receptor) | IC50 [4] | Ki [4] | IC50 [5] | Ki [5] | IC50 [6] | Ki [6] | IC50 [7]
